Active and inactive are the calls of the source.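 How the source made its calls: active means AC50, the dose giving half-maximal effect, exceeds a fixed cutoff for a compound that rescues yeast growth under heat; inactive means the rest, inconclusive results apart.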
System: S. cerevisiae Burl-1 ts mutant growth, BacTiter-Glo, 38.5C 24 h
Experiment: restored growth of temperature-sensitive Burl-1 yeast – whole organism, S. cerevisiae, Burl-1 ts mutant, luminescence, counter-screen for SUMOylation pathway inhibitor project, dose response (AID 463199)

Structure (SMILES)	AC50
CCC(CC)C(=O)N1CCCC(c2nc(-c3cccs3)no2)C1 (stereo not drawn)	> 42 µM (inactive)
COc1cc(/C=N/n2c(C3CCCCC3)n[nH]c2=S)cc(OC)c1O	> 42 µM (inactive)
CC(=O)N1N=C(N)SC12CCCC2	> 42 µM (inactive)
CCCN(CC1CC1)C(=O)COc1ccccc1C(=O)NCc1ccccc1	> 42 µM (inactive)
CCN(CC)CCNC(=O)CCn1c(=S)[nH]c2cc3c(cc2c1=O)OCO3	> 42 µM (inactive)
C/C(=N\N=C(/N)SC1CC(=O)N(c2cccc(Cl)c2)C1=O)c1cccs1 (stereo not drawn)	> 42 µM (inactive)
Cc1nc2ccccc2c2ncccc12	> 42 µM (inactive)
COC(=O)c1ccc(Cl)c(NC(=O)CN(c2ccc(OC)c(OC)c2)S(C)(=O)=O)c1	> 42 µM (inactive)
CCCOc1ccc(C(=O)NCc2ccco2)cc1	> 42 µM (inactive)
CN1C2CCC1CC(OC(=O)c1ccc([N+](=O)[O-])cc1)C2 (stereo not drawn)	> 42 µM (inactive)
Cc1cc(=O)n2[nH]c(-c3ccc(F)cc3)nc2n1	> 42 µM (inactive)
COC(=O)c1c(C)cc(O)c(C=O)c1O	> 42 µM (inactive)
CC[C@H]1CCCCc2ccccc2[C@@H](C(=O)C[C@@H](O)CC(C)=O)OC1=O	> 42 µM (inactive)
O=C(C1CCN(C2CC(=O)N(c3cccc(Cl)c3)C2=O)CC1)N1CCCC1 (stereo not drawn)	> 42 µM (inactive)
O=S(=O)(Cc1ccccc1)NCc1ccccn1	> 42 µM (inactive)
COC(=O)c1ccc(N2C(=O)CC(NCc3ccccc3)C2=O)cc1 (stereo not drawn)	> 42 µM (inactive)
Cc1ccc(S(=O)(=O)/N=C(/Nc2ccc([N+](=O)[O-])cc2[N+](=O)[O-])c2ccccc2)cc1	> 42 µM (inactive)
CCOC(=O)CCN(c1ccccc1)S(=O)(=O)c1ccc(-c2ccc(=O)[nH]n2)s1	> 42 µM (inactive)
Fc1ccc(-c2nnc3ccc(N4CCCC4)nn23)cc1	> 42 µM (inactive)
Cc1ccc(NS(=O)(=O)c2c(C)[nH]c(C)c2C(=O)N2CCCCC2)c(Cl)c1	> 42 µM (inactive)
CC1CN(C(=O)c2cc([N+](=O)[O-])cc([N+](=O)[O-])c2)CC(C)O1 (stereo not drawn)	> 42 µM (inactive)
O=C(O)CC(NC(=O)OCc1ccccc1)c1ccc(Br)cc1 (stereo not drawn)	> 42 µM (inactive)
Cc1nn(C)c(C)c1/C=N/NC(=O)C(C)(C)Oc1ccc(Cl)cc1	> 42 µM (inactive)
CCC(c1nnnn1C1CCCC1)N1CCN(c2cccc(OC)c2)CC1 (stereo not drawn)	> 21 µM (inactive)
FC(F)(F)c1nnc(-c2ccccc2)nc1Oc1ccc(Cl)cc1Cl	> 42 µM (inactive)

Structure (SMILES)	AC50
COc1cc(C(=O)Nc2sc3c(c2C(=O)O)CCC(C)C3)cc(OC)c1OC (stereo not drawn)	> 42 µM (inactive)
Cc1ccc(N(CC(=O)NCCc2ccc(Cl)cc2)S(=O)(=O)c2c(C)noc2C)cc1	> 42 µM (inactive)
Nc1cccc2c1C(=O)N(c1ccccc1)C2=O	> 42 µM (inactive)
C/C=C/C(=O)N1c2ccc(C)cc2C(C)=CC1(C)C	> 42 µM (inactive)
CCCc1nnc(NC(=O)c2cn(CC)c3cc(N4CCN(C)CC4)c(F)cc3c2=O)s1	> 21 µM (inactive)
CC1(C)CC(=O)C=C(OC(=O)c2ccc(Cl)cc2)C1	> 42 µM (inactive)
CCC(C)(C(=O)NC1CCCC1)N(C(=O)c1ccccn1)c1ccc(C)cc1 (stereo not drawn)	> 42 µM (inactive)
CO/N=C/c1ccc(Oc2ccc(C)cc2)nc1	> 42 µM (inactive)
O=C(Cn1nc(C(F)(F)F)c2c1CCCC2)N1CCOCC1	> 42 µM (inactive)
CN1/C(=C\C(=O)COC(=O)c2ccc([N+](=O)[O-])o2)C(C)(C)c2ccccc21	> 42 µM (inactive)
CCCC(=O)Nc1ccc(Sc2ccc([N+](=O)[O-])cc2)cc1	> 42 µM (inactive)
Oc1c(Br)cc(Br)cc1C=Nc1ccc2[nH]ncc2c1	> 42 µM (inactive)
COc1cccc(-n2c(SCC(=O)NC3CCCCC3)nc3n[nH]c(C)c3c2=N)c1	> 42 µM (inactive)
N#C/C(=C/c1ccc(N2CCCCC2)o1)C(=O)Nc1ccc(Cl)cc1	> 42 µM (inactive)
COCCCn1c2nc3ccccc3nc2c2c(=O)n(Cc3ccc(Cl)cc3)cnc21	> 42 µM (inactive)
CCCOC(=O)c1c(-c2ccc(OC)cc2)oc2ccc(-c3ccc(OC)nc3)cc12	> 42 µM (inactive)
COC(=O)C(NC(C)=O)(Nc1nc2ccc(S(C)(=O)=O)cc2s1)C(F)(F)F (stereo not drawn)	> 42 µM (inactive)
COc1ccc(NC(=O)Cn2nnc(C(=O)Nc3ccc(F)c(Cl)c3)c2N)cc1	> 42 µM (inactive)
CC(SC#N)C(=O)C12CC3CC(CC(C3)C1)C2 (stereo not drawn)	> 42 µM (inactive)
Cc1ccc(S(=O)(=O)N2c3ccc(S(N)(=O)=O)cc3CC2C)cc1 (stereo not drawn)	> 42 µM (inactive)
CCN1CCCC(NC(=O)c2scc3c2CCCC3)C1 (stereo not drawn)	> 42 µM (inactive)
O=C(c1cnn2c(C(F)(F)F)cc(-c3ccco3)nc12)N1CCCc2ccccc21	> 42 µM (inactive)
COc1cccc(NC(=O)c2nn(C34CC5CC(CC(C5)C3)C4)cc2[N+](=O)[O-])c1	> 42 µM (inactive)
Cc1ccnc(NC(c2cccnc2)c2ccc3cccnc3c2O)c1 (stereo not drawn)	> 42 µM (inactive)
CCc1cc2c(=O)c(-c3ccc(F)cc3)c(C(F)(F)F)oc2cc1OCC(=O)O	> 42 µM (inactive)

Structure (SMILES)	AC50
C=CCSC1=C(C#N)C(c2ccc(C(C)C)cc2)CC(=O)N1 (stereo not drawn)	> 42 µM (inactive)
CCOC(=O)c1cnc2c(OC)cccc2c1N1CCN(c2ccccc2OC)CC1	> 42 µM (inactive)
Cn1nc(C(=O)NCCc2ccc(Cl)cc2)c2c1-c1ccccc1S(=O)(=O)C2	> 42 µM (inactive)
CC(C)=CC(=O)N1CCCC(N2CCN(c3ccc(F)cc3)CC2)C1 (stereo not drawn)	2.02 µM
CCN(CC(=O)NCc1ccc(Cl)cc1)C(=O)/C=C/c1ccc(C#N)cc1	> 42 µM (inactive)
CCC(C)(C)n1nnnc1C(c1cccnc1)N1CCC(Cc2ccccc2)CC1 (stereo not drawn)	> 42 µM (inactive)
CC(=O)N(C)c1ccc(N2CCOCC2)c2c1C(=O)c1ccccc1C2=O	> 42 µM (inactive)
CCOc1ccc(C(=O)c2cccs2)cc1	> 42 µM (inactive)
CCCc1nc(NCc2ccccc2)c(C#N)c2c1CCCC2	> 42 µM (inactive)
O=C1NC2(CCCCC2)NN1c1ccccc1	> 42 µM (inactive)
CN(C)C(=O)c1cc(C(=O)c2ccc(C(F)(F)F)cc2F)c[nH]1	> 42 µM (inactive)
CCC1CCCCN1C(=O)CSc1nnc(CNC(=O)c2ccco2)o1 (stereo not drawn)	> 42 µM (inactive)
CCn1c(SCC(N)=O)nnc1-c1cc2c(C)nn(-c3ccccc3)c2s1	> 42 µM (inactive)
CCOC(=O)c1c(/N=C/C2C(=O)CCCC2=O)sc2c1CCCC2	> 42 µM (inactive)
CCCCNC(=O)c1ccccc1NC(=O)C1=C(C)OCCS1	11.3 µM
Cc1cc2ncc(C(=O)N=CN(C)C)cn2n1	> 42 µM (inactive)
CC(C)(C)C(=O)Nc1ccc(C(=O)NCc2cccnc2)cc1	> 42 µM (inactive)
Cc1cc(NC(=O)CC2CCCC2)ccc1Br	> 42 µM (inactive)
C=CCN1c2ccccc2[C@]23C[C@@H](C(=O)OC)N=C2NC(C(=O)OC)=C(C(=O)OC)[C@H]13	> 42 µM (inactive)
Cc1ccc(-c2nc3c(=O)n(-c4ccccc4)c4c(c(=O)n(C)c(=O)n4C)c3o2)cc1	> 42 µM (inactive)
Cc1ccc(NS(=O)(=O)c2cc(C(=O)Nc3cccc([N+](=O)[O-])c3)ccc2C)cc1	> 42 µM (inactive)
N#Cc1cccc(NC(=O)CSc2n[nH]c(=O)[nH]c2=O)c1	> 42 µM (inactive)
Cc1nnsc1C(=O)N1CCC(CO)(Cc2ccccc2Cl)CC1	> 42 µM (inactive)
CCOCCCNC(=O)C(c1ccc(OC)cc1)N(Cc1cccs1)C(=O)c1ccccn1 (stereo not drawn)	> 42 µM (inactive)
O=C(NCc1cccnc1)C1CCN(S(=O)(=O)c2cccnc2)CC1	> 42 µM (inactive)

Structure (SMILES)	AC50
Cc1ccc(NS(=O)(=O)c2csc(C(N)=O)c2)cc1C	> 42 µM (inactive)
CC(Oc1ccccc1)C(=O)Nc1ccccc1O (stereo not drawn)	> 42 µM (inactive)
Cn1c(=O)[nH]c(=O)c2c1nc(Sc1ccccc1)n2CCc1ccccc1	> 42 µM (inactive)
COC/C=C/C1=CC2=CC(=O)C(C)(OC(=O)c3cnc4ccccc4n3)C(=O)C2=CN1CCOC (stereo not drawn)	> 42 µM (inactive)
COc1ccc(CCNC(=O)C/C(C)=N/NC(=O)COc2ccc(C)cc2Br)cc1OC	> 42 µM (inactive)
O=C(O)C1CCCN1C(=O)c1cncc(Br)c1 (stereo not drawn)	> 42 µM (inactive)
COCCn1c(=O)[nH]c(=O)c2cc(C(=O)c3cc(Cl)ccc3O)cnc21	> 42 µM (inactive)
Cc1sc2ncn(C(C)C(=O)OC3CCCCC3)c(=O)c2c1C (stereo not drawn)	> 42 µM (inactive)
CCN(CCn1cccn1)C(=O)C1CCC(=O)N(CCc2cccc(F)c2)C1 (stereo not drawn)	> 42 µM (inactive)
CCOC(=O)c1cc2c(ccn2-c2ccc(F)cc2)n1CC(=O)N1CCN(C(=O)c2ccco2)CC1	> 42 µM (inactive)
CCc1ccccc1NC1c2ccccc2C(=O)N1c1cccnc1 (stereo not drawn)	> 42 µM (inactive)
CC1=CS(=O)(=O)CC1Sc1ncn[nH]1 (stereo not drawn)	> 42 µM (inactive)
CN(CCOc1ccc(-c2ccn(S(=O)(=O)c3cccc4ccccc34)n2)cc1)c1ccccn1	> 42 µM (inactive)
O=c1cc(-c2ccccc2)nc(N2CCN(Cc3ccccc3)CC2)[nH]1	> 42 µM (inactive)
Cc1ccc(-c2csc3ncn(CC(=O)N4CCOCC4)c(=O)c23)cc1	> 42 µM (inactive)
COc1ccc(C(=O)OCC(=O)c2ccc(C)c(S(=O)(=O)N3CCOCC3)c2)cc1OC	> 42 µM (inactive)
CCOc1ccc(OCC)c(NC(=O)C2COc3ccccc3O2)c1 (stereo not drawn)	> 42 µM (inactive)
COCCNC(=O)C(c1ccc(C)cc1)N(C(=O)CCC(=O)Nc1ccccn1)c1cccc(C)c1 (stereo not drawn)	> 42 µM (inactive)
O=C(c1cccnc1)N1CCCC(Nc2ccc(F)cc2)C1 (stereo not drawn)	> 42 µM (inactive)
CN=C1SC(CC(=O)Nc2sc3c(c2C#N)CCCC3)C(=O)N1C (stereo not drawn)	> 42 µM (inactive)
CCOC(=O)c1cc([N+](=O)[O-])c([N+](=O)[O-])cc1NC(C)=O	> 42 µM (inactive)
NC1=NC2(CCCC2)N=C(Nc2ccccc2)N1	> 42 µM (inactive)
O=C(N/C(=C/c1ccc2c(c1)OCO2)C(=O)N1CCOCC1)c1cccs1	> 42 µM (inactive)

— PubChem BioAssay AID463199 (Broad Institute, 2010)
